{"source": "patent US6890727B2", "about": "“Diagnostic assay for Alzheimer's disease: assessment of Aβ abnormalities” (The General Hospital Corporation, priority 1994, dated 2005)", "key": {"[1]": {"test": "65Zn2+ binding to immobilized peptide (dot-blot, Scatchard competition analysis)", "details": "for zinc binding (in words): dot-blot or blot of tryptic digest probed with ^65Zn^2+", "description": "^65Zn^2+ Binding Studies—Dissolved peptides (1.2 nMol, unless other wise stated) were dot-blotted onto polyvinylidene difluoride membrane (0.2-μm pore size; Pierce Chemical Co.), washed twice with chelating buffer (200 μl×100 mM NaCl, 20 mM Tris-HCl, 1 mM EDTA, pH 7.4), then five times with blocking buffer (200 μl×100 mM NaCl, 20 mM Tris-HCl, 1 mM MnCl2, pH 7.4), and then incubated (60 min, 20° C.) with ^65Zn (unless otherwise stated 130,000 cpm, […] ^65ZnCl2 in 200 μl of blocking buffer±competing metal ion chloride). The dot-blot was then washed with blocking buffer (5×200 μl), the dot excised, placed in a test tube, and assayed by γ-counting (11% efficiency). The equilibration volume for stoichiometry estimates was regarded as 6×200 μl. The 214 nm UV absorbance of the unbound flow-through was assayed to determine the total amount of peptide remaining bound onto the membrane. […] To alter the pH, the ^65Zn incubation was carried out in the presence of 100 mM buffer: MOPS (pH 6.5-7.0), MES (pH 5.0-6.0), acetate (pH 3.5-4.5). The dot-blot apparatus was washed with detergent and EDTA (50 mM) then rinsed and siliconized between use.\nAliquots of Aβ were incubated (60 min) with ^65Zn^2+ in the presence of varying concentrations of unlabeled Zn^2+ (0.01-50 μM total). Values shown are means±S.D., n≧3. […] (FIG. 1b) depicts specificity of the Zn^2+ binding site for various metals. Aβ was incubated (60 min) with ^65 Zn^2+ (157 nM, 138,000 cpm) and competing unlabeled metal ions (50 μM total). […] Percent binding of total counts ^65Zn^2+/min added is corrected for the amounts (in nanomoles) of peptides adhering to the membrane. […] 157 nM ^65Zn (138,000 cpm) is used in this experiment to probe immobilized peptide (1.6 nmol)."}, "[2]": {"biological_target": "T1, Aβ (Homo sapiens, UniProt P05067)", "T1 construct": "purchased Sigma; Bachem (results also replicated with peptide from the Keck Laboratory, Yale); host or cells: chemical synthesis", "T1 sequence (P05067 672-711)": "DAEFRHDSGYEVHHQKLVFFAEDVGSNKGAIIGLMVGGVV", "test": "G50 gel filtration chromatography of Aβ in presence of metal ions or EDTA", "details": "metal ion 25 μM", "description": "Aβ was stored in aliquots of 0.52 mg/ml in water at −20° C., then kept at 4° C. when thawed. Reagents were mixed without vortex mixing. The incubated Aβ was directly applied to a G50 SF (Pharmacia, Uppsala, Sweden) column (Bio-Rad Econo-Column, 30×0.7 cm) pre-equilibrated with metal salt solution or EDTA (50 μM) in TBS at 20° C. and eluted at 8 ml/h (Wiz peristaltic pump, Isco, Lincoln, Nebr.). Absorbance was measured at 254 and 214 nm (Type 6 optical unit, Isco). The amount of Aβ eluting at various peaks was estimated from the area under the curve. […] Because the sample eluted in a volume of approximately 15 ml, the average concentration of the peptide on the column was 0.8 μM.\nTo study the effects of protein blocking upon adsorption of β to the chromatography column, a Sephadex G50 SF column which had been characterized previously for Aβ behavior was eluted with 3% bovine serum albumin (BSA) in TBS (50 ml) and equilibrated with non-BSA-containing buffer, subsequent to repeating the Aβ experiments.\nThe elution points of molecular mass standards and relative assignments of Aβ peak elutions are indicated. Mass standards were blue dextran (2×10^6 kDa, V0=void volume), BSA (66 kDa), carbonic anhydrase (29 kDa), cytochrome c (12.4 kDa), and aprotinin (6.5 kDa). The mass of Aβ is 4.3 kDa. […] Data for experiments performed in the presence of copper were taken from 214 nm readings and corrected for comparison."}, "[3]": {"test": "65Zn2+ binding to immobilized peptide (dot-blot, Scatchard competition analysis)", "details": "74 nM ^65Zn^2+, corrected for peptide on membrane"}, "[4]": {"system": "trypsin", "test": "Tryptic digestion of Aβ after incubation with Zn2+", "type": "biochemical", "details": "increasing zinc concentrations", "description": "Tryptic Digestion of Aβ-Aβ1-40 (13.9 μg) was incubated with Zn^2+ ([…] in blocking buffer, 1 h, 37° C.) and then digested with trypsin (12 ng, 3 h, 37° C.). The reaction was stopped by adding SDS sample buffer containing phenylmethylsulfonyl fluoride (1 mM), boiling the samples (5 min), and applying the samples to Tris/Tricine gel electrophoresis and transfer. The blot was washed with EDTA, Coomassie-stained, incubated with ^65Zn^2+, individual bands were excised, assayed for ^65Zn^2+ binding, and N-terminal sequenced to confirm the identity of the digestion products. The effects of Zn^2+ (up to 100 μM in TBS) on the activity of trypsin, itself, were assayed by assay of Z-Arg-amido-4-methylcoumarin (Sigma) fluorescent cleavage product and determined to be negligible.\n(FIG. 4a) depicts a blot of tryptic digests of Aβ (13.9 μg) after incubation with increasing concentrations of zinc (lane labels, in micromolar), stained by Coomassie Blue. […] The migration of the low molecular size markers (STD) are indicated (in kilodaltons) on the right. (FIG. 4b) depicts ^65Zn^2+ binding to Aβ tryptic digestion products. The blot in 4a was incubated with ^65Zn^2+, the visible bands excised, and the bound counts for each band determined."}, "[5]": {"test": "not given", "remark": "listed apart in the source"}, "[6]": {"test": "Zinc-induced tinctorial amyloid formation (Congo Red, polarized light)", "type": "physicochemical", "details": "Congo Red", "description": "FIGS. 8a and 8b are photographs showing zinc-induced tinctorial amyloid formation. […] The particle diameter is 40μ. […] The experiment was repeated with EDTA (50 μM) substituted for Zn^2+ and yielded no visible material.\nThe particle diameter is 40μ. […] The experiment was repeated with EDTA (50 μM) substituted for Zn^2+ and yielded no visible material."}}, "note": "Read-outs that look alike come from different tables or passages of the source.", "data": [{"molecule": "25-35: Aβ fragment covering a region of the carboxyl terminus, residues 25-35 (GSNKGAIIGLM; Amyloid-beta protein 40; UniProt P05067 696-706, looked up, fragment)", "values": [{"measurement": "zinc binding (in words)", "setting": "[1]", "value": "unable to bind zinc"}]}, {"molecule": "[Ag+2]", "note": "[Ag^2+]", "values": [{"measurement": "reduction in eluted peptide", "setting": "[2]", "value": 60, "unit": "%"}]}, {"molecule": "[Al+3]", "note": "[Al^3+]", "values": [{"measurement": "total Zn^2+ concentration with similar or comparable effect on Aβ chromatography", "setting": "[2]", "value": "~3", "unit": "µM"}]}, {"molecule": "[Ba+2]", "note": "[Ba^2+]", "values": [{"measurement": "reduction in eluted peptide", "setting": "[2]", "value": 60, "unit": "%"}]}, {"molecule": "[Ca+2]", "note": "[Ca^2+]", "values": [{"measurement": "reduction in eluted peptide", "setting": "[2]", "value": 60, "unit": "%"}]}, {"molecule": "[Co+2]", "note": "[Co^2+]", "values": [{"measurement": "total Zn^2+ concentration with similar or comparable effect on Aβ chromatography", "setting": "[2]", "value": "~10", "unit": "µM"}]}, {"molecule": "[Cu+2]", "note": "[Cu^2+, copper]", "values": [{"measurement": "effect on eluted Aβ species (monomer, dimer, polymer)", "setting": "[2]", "value": "dramatic increase in Aβ dimerization"}]}, {"molecule": "[Fe+2]", "note": "[Fe^2+]", "values": [{"measurement": "total Zn^2+ concentration with similar or comparable effect on Aβ chromatography", "setting": "[2]", "value": "~10", "unit": "µM"}]}, {"molecule": "[Mg+2]", "note": "[Mg^2+]", "values": [{"measurement": "reduction in eluted peptide", "setting": "[2]", "value": 60, "unit": "%"}]}, {"molecule": "[Ni+2]", "note": "[Ni^2+]", "values": [{"measurement": "total Zn^2+ concentration with similar or comparable effect on Aβ chromatography", "setting": "[2]", "value": "~10", "unit": "µM"}]}, {"molecule": "[Pb+2]", "note": "[Pb^2+]", "values": [{"measurement": "effect on eluted Aβ species (monomer, dimer, polymer)", "setting": "[2]", "value": "most strongly promotes the elution of the monomeric peptide, abolishing high order polymers"}, {"measurement": "total Zn^2+ concentration with similar or comparable effect on Aβ chromatography", "setting": "[2]", "value": "~0.4", "unit": "µM"}]}, {"molecule": "NC(CO)(CO)CO", "note": "[Tris]", "values": [{"measurement": "abolition of ^65Zn^2+ binding to Aβ", "setting": "[1]; Tris 150 mM", "value": "≈ 50%"}, {"measurement": "abolition of ^65Zn^2+ binding to Aβ", "setting": "[1]; Tris 500 mM", "value": "≈ 95%"}]}, {"molecule": "Aβ1-28: fragment of Aβ, residues 1-28", "values": [{"measurement": "^65Zn^2+ binding compared with Aβ1-40", "setting": "[3]", "value": "30 % of Bmax"}, {"measurement": "zinc binding (in words)", "setting": "[1]", "value": "clearly binds zinc"}]}, {"molecule": "Aβ6-40: 3.6 kDa tryptic digestion product of Aβ1-40", "values": [{"measurement": "effect of zinc on rate of tryptic digestion of the peptide", "setting": "[4]", "value": "is inhibited by the presence of zinc"}, {"measurement": "zinc binding (in words)", "setting": "[1]", "value": "binds zinc"}]}, {"molecule": "Aβ17-40: 2.1 kDa tryptic digestion product of Aβ1-40, equivalent to post-secretase carboxyl-terminal product (LVFFAEDVGSNKGAIIGLMVGGVV; Amyloid-beta protein 40; UniProt P05067 688-711, looked up, fragment)", "values": [{"measurement": "effect of zinc on rate of tryptic digestion of the peptide", "setting": "[4]", "value": "is not inhibited by increasing zinc concentrations"}, {"measurement": "zinc binding (in words)", "setting": "[1]", "value": "does not bind zinc"}]}, {"molecule": "gln11: Aβ1-28 where residue 11 is glutamine (DAEFRHDSGYQVHHQKLVFFAEDVGSNK; Amyloid-beta protein 40; UniProt P05067 672-699, looked up, variant E11Q)", "values": [{"measurement": "zinc binding (in words)", "setting": "[1]", "value": "does not interfere with ^65Zn^2+ binding"}]}, {"molecule": "rat Aβ1-40: rat/mouse species of Aβ1-40; Arg→Gly, Tyr→Phe, His→Arg at positions 5, 10 and 13 (DAEFGHDSGFEVRHQKLVFFAEDVGSNKGAIIGLMVGGVV; Amyloid-beta protein 40; UniProt P08592 672-711, looked up)", "values": [{"measurement": "peptide aggregated into >0.2μ particles", "setting": "EDTA, higher peptide concentrations", "value": "≈ 15%"}, {"measurement": "peptide aggregated into >0.2μ particles", "setting": "EDTA, peptide 0.8 μM", "value": "no detectable aggregation"}, {"measurement": "peptide aggregated into >0.2μ particles", "setting": "Zn^2+ 25 μM, peptide 0.8 μM", "value": "no aggregation"}, {"measurement": "peptide aggregated into >0.2μ particles", "setting": "Zn^2+ 25 μM, peptide 4 μM", "value": 25, "unit": "%"}, {"measurement": "zinc concentration at which aggregation was observed", "setting": "peptide 1.6 μM", "value": 25, "unit": "µM"}, {"measurement": "zinc concentration up to which the peptide remains stable", "setting": "peptide 1.6 μM", "value": "up to 10 μM"}, {"measurement": "proportion of particles >0.1μ", "setting": "[5]; EDTA, peptide 1.6 μM", "value": 36, "unit": "%"}, {"measurement": "proportion of particles >0.22μ", "setting": "[5]; EDTA, peptide 1.6 μM", "value": 27, "unit": "%"}, {"measurement": "proportion of particles >0.65μ", "setting": "[5]; EDTA, peptide 1.6 μM", "value": 25, "unit": "%"}, {"measurement": "increase of proportion of >0.1μ particles following incubation with Zn^2+", "setting": "[5]; Zn^2+ 25 μM vs EDTA", "value": 20, "unit": "%"}, {"measurement": "increase of proportion of >0.22μ particles following incubation with Zn^2+", "setting": "[5]; Zn^2+ 25 μM vs EDTA", "value": 30, "unit": "%"}, {"measurement": "proportion of particles >0.65μ", "setting": "[5]; Zn^2+ 25 μM, peptide 1.6 μM", "value": "increased only slightly"}, {"measurement": "Zn^2+ concentration inducing amyloid by tinctorial criteria", "setting": "[6]", "value": "≥ 10", "unit": "µM"}]}]}
